This test deals with T1, tau protein 1N/4R isoform (Homo sapiens, UniProt P10636).
T1 construct: gene MAPT; recombinant human His-tagged tau 1N/4R isoform, expressed in E. coli BL21(DE3)
Briefly: intrinsic Tyr fluorescence quenching titration (Stern-Volmer/Hill; Kb at […] °C), Job's plot […]; supported by ThT aggregation assay, CD and AFM. In kind it is binding. The settings on record: read-out: Kb×10^4(M^-1) (converted).

T1 sequence (P10636 1-412 isoform P10636-7): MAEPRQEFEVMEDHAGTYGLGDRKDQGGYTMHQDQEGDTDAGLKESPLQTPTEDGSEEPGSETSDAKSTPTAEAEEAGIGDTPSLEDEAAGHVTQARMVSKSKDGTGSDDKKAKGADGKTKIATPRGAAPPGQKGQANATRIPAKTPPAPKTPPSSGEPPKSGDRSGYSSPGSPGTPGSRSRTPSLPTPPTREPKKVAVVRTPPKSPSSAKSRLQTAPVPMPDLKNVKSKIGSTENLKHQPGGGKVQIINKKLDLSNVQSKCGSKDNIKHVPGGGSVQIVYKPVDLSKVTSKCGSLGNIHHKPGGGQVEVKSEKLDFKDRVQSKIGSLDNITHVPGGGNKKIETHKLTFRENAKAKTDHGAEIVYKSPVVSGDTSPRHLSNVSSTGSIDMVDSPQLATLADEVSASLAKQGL

For the compound `C=C(C)[C@@H]1CCC(C)=C[C@H]1c1c(O)cc(CCCCC)cc1O` [Cannabidiol], the Kd was 23.8 µM.

The values are drawn from article PMC8700709, “Cannabidiol Inhibits Tau Aggregation In Vitro” (Cells, 2021).
